Measured values published in ChEMBL document CHEMBL4813922, “Discovery of a novel small-molecule inhibitor of Fam20C that induces apoptosis and inhibits migration in triple negative breast cancer” (Eur J Med Chem, 2021).
The source made the active and inactive calls. The rule behind the calls is not given here.

Columns and labels:
MDA-MB-231 [1] = assay: Antitumour activity against human MDA-MB-231 cells xenografted in Balb/c mouse assessed as reduction in tumor weight at 25 to 50 mg/kg, ig for 14 days; type: functional, organism-based; details: dose 25-50 mg/kg, time 14.0 day
MDA-MB-231 [2] = assay: Antitumour activity against human MDA-MB-231 cells xenografted in Balb/c mouse assessed as increase in cleaved caspase 3 level in tumor at 25 to 50 mg/kg, ig measured after 14 days by western blot method; type: functional, organism-based; details: dose 25-50 mg/kg, time 14.0 day
MCF-10A = assay: Cytotoxicity against human MCF-10A cells assessed as inhibition of cell proliferation at 0.625 to 40 uM measured by MTT assay; type: cell-based; details: dose 0.625-40 µM
[3] = Toxicity in Balb/c mouse xenografted with human MDA-MB-231 cells assessed as changes in body weight at 25 mg/kg, ig measured after 14 days; type: organism-based; details: in vivo, po, 336 h, time 14 day
MDA-MB-231 [4] = assay: Antitumour activity against human MDA-MB-231 cells xenografted in Balb/c mouse assessed as downregulation of Bcl-2 protein expression in tumor at 25 to 50 mg/kg, ig measured after 14 days by western blot method; type: functional, organism-based; details: dose 25-50 mg/kg, time 14.0 day
MDA-MB-231 [5] = assay: Inhibition of cell migration in human MDA-MB-231 cells assessed as downregulation of MMP-2 protein expression at 2.5 uM measured after 24 hrs by immunofluorescence assay; type: functional, cell-based
MDA-MB-231 [6] = assay: Inhibition of cell migration in human MDA-MB-231 cells assessed as downregulation of MMP-2 protein expression at 2.5 to 5 uM measured after 24 hrs by western blot assay; type: functional, cell-based; details: dose 2.5-5 µM
MDA-MB-231 [7] = assay: Induction of apoptosis in human MDA-MB-231 cells assessed as late apoptotic cells at 2.5 uM measured after 24 hrs by Annexin V-FITC/PI staining based flow cytometry (reference value: 3.02%); type: functional
MDA-MB-231 [8] = assay: Induction of apoptosis in human MDA-MB-231 cells assessed as DNA condensation measured after 24 hrs by Hoechst 33258 staining based flourescence microscopic analysis; type: functional, cell-based
MDA-MB-231 [9] = assay: Induction of apoptosis in human MDA-MB-231 cells assessed as necrotic cells at 2.5 uM measured after 24 hrs by Annexin V-FITC/PI staining based flow cytometrY (reference value: 0.64%); type: functional
MDA-MB-231 [10] = assay: Antitumour activity against human MDA-MB-231 cells xenografted in Balb/c mouse assessed as decrease in Ki-67 expression in tumor at 50 mg/kg, ig measured after 14 days by immunohistochemistry method; type: functional, organism-based; details: time 14.0 day
MDA-MB-231 [11] = assay: Induction of apoptosis in human MDA-MB-231 cells assessed as upregulation of Bax protein expression at 2.5 to 5 uM measured after 24 hrs by western blot assay; type: functional, cell-based; details: dose 2.5-5 µM
MDA-MB-231 [12] = assay: Induction of apoptosis in human MDA-MB-231 cells assessed as early apoptotic cells at 2.5 uM measured after 24 hrs by Annexin V-FITC/PI staining based flow cytometry (reference value: 2%); type: functional
[13] = molecular target: T1, Extracellular serine/threonine protein kinase FAM20C (Homo sapiens) (UniProt Q8IXL6); assay: Inhibition of Fam20C (unknown origin) assessed as reduction in inorganic phosphate release in presence of ATP at 10 uM measured by Malachite green phosphate staining based micro plate reader assay relative to control
T1 sequence (whole entry): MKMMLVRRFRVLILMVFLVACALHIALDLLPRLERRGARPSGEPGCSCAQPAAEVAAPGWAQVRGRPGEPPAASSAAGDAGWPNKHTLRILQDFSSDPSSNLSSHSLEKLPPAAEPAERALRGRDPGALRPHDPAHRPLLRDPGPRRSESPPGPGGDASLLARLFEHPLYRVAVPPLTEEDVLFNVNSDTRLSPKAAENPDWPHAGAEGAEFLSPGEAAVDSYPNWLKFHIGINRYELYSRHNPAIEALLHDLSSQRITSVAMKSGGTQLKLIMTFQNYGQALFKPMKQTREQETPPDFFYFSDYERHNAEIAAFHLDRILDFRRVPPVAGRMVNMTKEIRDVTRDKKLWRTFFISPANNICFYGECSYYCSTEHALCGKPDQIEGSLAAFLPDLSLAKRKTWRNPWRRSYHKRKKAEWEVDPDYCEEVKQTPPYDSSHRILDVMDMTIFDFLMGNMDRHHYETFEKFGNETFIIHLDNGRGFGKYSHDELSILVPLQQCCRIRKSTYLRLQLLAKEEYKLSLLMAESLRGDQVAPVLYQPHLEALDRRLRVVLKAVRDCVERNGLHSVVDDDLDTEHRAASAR

MDA-MB-231 [14] = assay: Induction of apoptosis in human MDA-MB-231 cells assessed as necrotic cells at 5 uM measured after 24 hrs by Annexin V-FITC/PI staining based flow cytometry (reference value: 0.64%); type: functional
MDA-MB-231 [15] = assay: Induction of apoptosis in human MDA-MB-231 cells assessed as late apoptotic cells at 5 uM measured after 24 hrs by Annexin V-FITC/PI staining based flow cytometry (reference value: 3.02%); type: functional
MDA-MB-231 [16] = assay: Induction of apoptosis in human MDA-MB-231 cells assessed as early apoptotic cells at 5 uM measured after 24 hrs by Annexin V-FITC/PI staining based flow cytometry (reference value: 2%); type: functional
MDA-MB-231 [17] = assay: Induction of apoptosis in human MDA-MB-231 cells assessed as downregulation of Bcl-2 protein expression at 2.5 to 5 uM measured after 24 hrs by western blot assay; type: functional, cell-based; details: dose 2.5-5 µM
MDA-MB-468 = assay: Antiproliferative activity against human MDA-MB-468 cells measured by MTT assay; type: functional, cell-based
MDA-MB-231 [18] = assay: Antitumour activity against human MDA-MB-231 cells xenografted in Balb/c mouse assessed as reduction in tumor volume at 25 to 50 mg/kg, ig for 14 days; type: functional, organism-based; details: dose 25-50 mg/kg, time 14.0 day
[19] = Toxicity in Balb/c mouse xenografted with human MDA-MB-231 cells assessed as changes in body weight at 50 mg/kg, ig measured after 14 days; type: organism-based; details: in vivo, po, 336 h, time 14 day
MDA-MB-231 [20] = assay: Inhibition of cell migration in human MDA-MB-231 cells assessed as upregulation of E-cadherin protein expression at 2.5 uM measured after 24 hrs by immunofluorescence assay; type: functional, cell-based
MDA-MB-231 [21] = assay: Inhibition of cell migration in human MDA-MB-231 cells assessed as decrease in wound closure at 2.5 uM measured after 24 hrs by scratch assay; type: functional, cell-based
[22] = molecular target: T2, Extracellular serine/threonine protein kinase FAM20C (Homo sapiens, UniProt Q8IXL6); assay: Inhibition of Fam20C (unknown origin) assessed as reduction in inorganic phosphate release in presence of ATP measured by Malachite green phosphate staining based micro plate reader assay
T2 sequence (Q8IXL6 whole entry): T1 sequence (whole entry)

MDA-MB-231 [23] = assay: Inhibition of cell migration in human MDA-MB-231 cells at 2.5 uM measured after 12 hrs by Transwell assay; type: functional, cell-based
MDA-MB-231 [24] = assay: Antitumour activity against human MDA-MB-231 cells xenografted in Balb/c mouse assessed as upregulation of Bax protein expression in tumor at 25 to 50 mg/kg, ig measured after 14 days by western blot method; type: functional, organism-based; details: dose 25-50 mg/kg, time 14.0 day
MDA-MB-231 [25] = assay: Inhibition of colony formation in human MDA-MB-231 cells at 5 uM measured after 2 weeks by crystal violet staining based analysis; type: functional, cell-based
MDA-MB-231 [26] = assay: Induction of apoptosis in human MDA-MB-231 cells assessed as viable cells at 2.5 uM measured after 24 hrs by Annexin V-FITC/PI staining based flow cytometry (reference value: 94.3%); type: functional; details: read-out: Activity
MDA-MB-231 [27] = assay: Antiproliferative activity against human MDA-MB-231 cells measured by MTT assay; type: functional, cell-based
MDA-MB-231 [28] = assay: Inhibition of cell migration in human MDA-MB-231 cells assessed as upregulation of E-cadherin protein expression at 2.5 to 5 uM measured after 24 hrs by western blot assay; type: functional, cell-based; details: dose 2.5-5 µM
MDA-MB-231 [29] = assay: Induction of apoptosis in human MDA-MB-231 cells assessed as upregulation of cleaved caspase 3 level at 2.5 to 5 uM measured after 24 hrs by western blot assay; type: functional, cell-based; details: dose 2.5-5 µM
MCF7 = assay: Antiproliferative activity against human MCF7 cells measured by MTT assay; type: functional, cell-based
MDA-MB-231 [30] = assay: Induction of apoptosis in human MDA-MB-231 cells assessed as viable cells at 5 uM measured after 24 hrs by Annexin V-FITC/PI staining based flow cytometry (reference value: 94.3%); type: functional; details: read-out: Activity

COc1ccc(S(=O)(=O)Nc2ccc(Nc3nccc(Nc4cc(OC)c(OC)c(OC)c4)n3)cc2)cc1
Activity (MDA-MB-231 [1]): Active | Activity (MDA-MB-231 [2]): Active | Activity (MCF-10A): Non-Toxic | Activity [3]: Non-Toxic | Activity (MDA-MB-231 [4]): Active | inhibition (MDA-MB-231 [5]): Active | inhibition (MDA-MB-231 [6]): Active | Activity (MDA-MB-231 [7]): 15.3% | Activity (MDA-MB-231 [8]): Active | Activity (MDA-MB-231 [9]): 3.23% | Activity (MDA-MB-231 [10]): Active | Activity (MDA-MB-231 [11]): Active | Activity (MDA-MB-231 [12]): 10.7% | inhibition [13]: 68% | Activity (MDA-MB-231 [14]): 8.89% | Activity (MDA-MB-231 [15]): 33.2% | Activity (MDA-MB-231 [16]): 15.9% | Activity (MDA-MB-231 [17]): Active | IC50 (MDA-MB-468): 10.3 µM | Activity (MDA-MB-231 [18]): Active | Activity [19]: Non-Toxic | inhibition (MDA-MB-231 [20]): Active | inhibition (MDA-MB-231 [21]): Active | IC50 [22]: 6.24 µM | inhibition (MDA-MB-231 [23]): Active | Activity (MDA-MB-231 [24]): Active | inhibition (MDA-MB-231 [25]): Active | viability at 2.5 µM (MDA-MB-231 [26]): 70.8% | IC50 (MDA-MB-231 [27]): 5.99 µM | inhibition (MDA-MB-231 [28]): Active | Activity (MDA-MB-231 [29]): Active | IC50 (MCF7): 9.7 µM | viability at 5 µM (MDA-MB-231 [30]): 42%
